From ChEMBL document CHEMBL3991601, “The target landscape of clinical kinase drugs” (Science, 2017)
The source made the active and inactive calls. For most assays here, no stated cut-off is given here; in the data, actives have a measured Kd and inactives only a lower limit.

Tests used:
[1] = biological target: T1, Calcium/calmodulin-dependent protein kinase type IV (Homo sapiens, UniProt Q16566)
T1 sequence (Q16566 whole entry): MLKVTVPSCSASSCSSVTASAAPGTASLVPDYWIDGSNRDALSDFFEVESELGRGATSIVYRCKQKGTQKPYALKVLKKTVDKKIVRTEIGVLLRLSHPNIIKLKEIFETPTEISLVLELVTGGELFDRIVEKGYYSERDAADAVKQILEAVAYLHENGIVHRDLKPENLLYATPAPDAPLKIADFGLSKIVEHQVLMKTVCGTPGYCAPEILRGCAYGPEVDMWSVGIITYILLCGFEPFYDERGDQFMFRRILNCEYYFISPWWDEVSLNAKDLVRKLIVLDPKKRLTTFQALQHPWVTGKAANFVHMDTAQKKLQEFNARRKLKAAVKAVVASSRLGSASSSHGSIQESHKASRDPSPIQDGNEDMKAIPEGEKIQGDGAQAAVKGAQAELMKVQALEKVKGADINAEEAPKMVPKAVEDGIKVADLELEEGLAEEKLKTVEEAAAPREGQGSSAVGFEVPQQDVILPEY

[2] = biological target: T2, Scaffold protein ILK (Homo sapiens, UniProt Q13418)
T2 sequence (Q13418 whole entry): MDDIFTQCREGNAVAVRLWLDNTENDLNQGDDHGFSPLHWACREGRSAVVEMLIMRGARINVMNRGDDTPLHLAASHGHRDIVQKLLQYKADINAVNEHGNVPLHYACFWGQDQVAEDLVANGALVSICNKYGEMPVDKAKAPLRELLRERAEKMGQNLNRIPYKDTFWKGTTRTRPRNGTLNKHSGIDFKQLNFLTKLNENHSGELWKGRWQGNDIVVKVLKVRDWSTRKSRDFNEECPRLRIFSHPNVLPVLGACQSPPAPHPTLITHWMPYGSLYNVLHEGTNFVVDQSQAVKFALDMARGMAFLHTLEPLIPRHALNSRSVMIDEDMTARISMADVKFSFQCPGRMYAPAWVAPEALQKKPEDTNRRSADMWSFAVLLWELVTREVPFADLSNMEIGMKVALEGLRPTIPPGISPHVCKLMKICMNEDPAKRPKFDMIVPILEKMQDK

[3] = biological target: T3, Mitogen-activated protein kinase kinase kinase 5 (Homo sapiens, UniProt Q99683)
T3 sequence (Q99683 whole entry): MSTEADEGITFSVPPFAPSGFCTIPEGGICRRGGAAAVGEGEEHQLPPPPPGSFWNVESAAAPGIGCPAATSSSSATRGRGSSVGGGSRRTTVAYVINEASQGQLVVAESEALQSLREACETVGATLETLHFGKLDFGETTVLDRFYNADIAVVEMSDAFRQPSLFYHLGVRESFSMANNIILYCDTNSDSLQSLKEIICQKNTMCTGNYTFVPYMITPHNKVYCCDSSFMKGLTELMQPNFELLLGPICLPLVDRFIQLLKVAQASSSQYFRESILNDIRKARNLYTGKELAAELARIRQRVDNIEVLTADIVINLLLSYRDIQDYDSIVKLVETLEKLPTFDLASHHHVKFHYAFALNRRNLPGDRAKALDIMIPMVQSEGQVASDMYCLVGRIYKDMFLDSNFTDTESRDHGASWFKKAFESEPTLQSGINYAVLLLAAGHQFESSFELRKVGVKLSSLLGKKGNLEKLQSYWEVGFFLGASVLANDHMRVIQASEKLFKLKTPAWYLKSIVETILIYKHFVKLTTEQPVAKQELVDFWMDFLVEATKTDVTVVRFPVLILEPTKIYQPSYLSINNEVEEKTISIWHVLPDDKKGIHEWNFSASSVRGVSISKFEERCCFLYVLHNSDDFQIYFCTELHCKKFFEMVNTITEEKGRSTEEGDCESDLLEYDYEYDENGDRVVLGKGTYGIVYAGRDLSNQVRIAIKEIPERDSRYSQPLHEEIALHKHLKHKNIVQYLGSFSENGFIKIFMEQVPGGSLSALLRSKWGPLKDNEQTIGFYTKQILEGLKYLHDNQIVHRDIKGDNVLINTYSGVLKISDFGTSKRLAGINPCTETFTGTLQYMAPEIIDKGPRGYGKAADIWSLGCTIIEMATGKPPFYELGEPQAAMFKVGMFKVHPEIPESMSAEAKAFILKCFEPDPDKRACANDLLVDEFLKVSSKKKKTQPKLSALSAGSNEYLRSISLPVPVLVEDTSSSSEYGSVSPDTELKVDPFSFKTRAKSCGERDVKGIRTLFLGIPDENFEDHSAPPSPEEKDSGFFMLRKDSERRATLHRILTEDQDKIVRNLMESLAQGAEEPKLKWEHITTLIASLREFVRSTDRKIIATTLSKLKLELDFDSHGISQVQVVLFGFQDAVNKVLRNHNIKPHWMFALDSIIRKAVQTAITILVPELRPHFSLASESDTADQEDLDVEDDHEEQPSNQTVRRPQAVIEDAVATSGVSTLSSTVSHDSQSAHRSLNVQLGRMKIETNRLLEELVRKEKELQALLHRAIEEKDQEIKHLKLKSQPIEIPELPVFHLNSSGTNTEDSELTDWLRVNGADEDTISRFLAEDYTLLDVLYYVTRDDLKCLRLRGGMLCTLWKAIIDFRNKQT

[4] = biological target: Ras-related protein Rab-6A (Homo sapiens, UniProt P20340)
[5] = biological target: T4, Serine/threonine-protein kinase 4 (Homo sapiens, UniProt Q13043)
T4 sequence (Q13043 whole entry): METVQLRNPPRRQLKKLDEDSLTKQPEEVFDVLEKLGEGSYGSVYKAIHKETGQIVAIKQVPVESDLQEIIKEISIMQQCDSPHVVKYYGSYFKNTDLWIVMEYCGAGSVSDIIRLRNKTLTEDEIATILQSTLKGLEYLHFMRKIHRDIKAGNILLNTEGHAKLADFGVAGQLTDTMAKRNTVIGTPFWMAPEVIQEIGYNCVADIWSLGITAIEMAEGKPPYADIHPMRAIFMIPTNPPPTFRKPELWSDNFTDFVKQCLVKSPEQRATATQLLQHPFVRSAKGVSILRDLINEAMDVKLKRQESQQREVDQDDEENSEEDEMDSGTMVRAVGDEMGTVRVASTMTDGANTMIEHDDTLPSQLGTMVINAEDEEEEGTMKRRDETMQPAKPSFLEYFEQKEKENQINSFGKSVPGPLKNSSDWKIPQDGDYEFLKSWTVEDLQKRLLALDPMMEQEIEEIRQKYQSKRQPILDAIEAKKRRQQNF

[6] = biological target: Tyrosine-protein kinase Lyn (Homo sapiens, UniProt P07948)
[7] = biological target: Proto-oncogene tyrosine-protein kinase Src (Homo sapiens, UniProt P12931)
[8] = biological target: Serine/threonine-protein kinase PAK 4 (Homo sapiens, UniProt O96013)
Chain of Serine/threonine-protein kinase PAK 4 (O96013 whole entry): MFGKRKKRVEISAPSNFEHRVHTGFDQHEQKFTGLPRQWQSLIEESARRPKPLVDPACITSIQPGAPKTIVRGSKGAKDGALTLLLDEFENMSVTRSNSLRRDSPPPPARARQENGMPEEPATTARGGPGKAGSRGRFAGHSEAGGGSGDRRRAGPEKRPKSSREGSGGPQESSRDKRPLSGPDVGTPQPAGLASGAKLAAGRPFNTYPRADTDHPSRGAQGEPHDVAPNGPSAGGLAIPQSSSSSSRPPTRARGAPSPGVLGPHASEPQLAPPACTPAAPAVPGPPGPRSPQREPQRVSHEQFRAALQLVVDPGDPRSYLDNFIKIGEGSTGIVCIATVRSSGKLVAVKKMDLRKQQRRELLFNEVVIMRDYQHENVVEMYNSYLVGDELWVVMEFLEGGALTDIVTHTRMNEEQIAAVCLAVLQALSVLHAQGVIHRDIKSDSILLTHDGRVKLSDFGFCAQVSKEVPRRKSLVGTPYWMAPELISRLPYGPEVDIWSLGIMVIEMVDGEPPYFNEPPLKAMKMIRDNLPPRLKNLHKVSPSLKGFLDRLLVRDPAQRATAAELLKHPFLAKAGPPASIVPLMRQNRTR

Chain of Proto-oncogene tyrosine-protein kinase Src (P12931 2-536 limits assumed): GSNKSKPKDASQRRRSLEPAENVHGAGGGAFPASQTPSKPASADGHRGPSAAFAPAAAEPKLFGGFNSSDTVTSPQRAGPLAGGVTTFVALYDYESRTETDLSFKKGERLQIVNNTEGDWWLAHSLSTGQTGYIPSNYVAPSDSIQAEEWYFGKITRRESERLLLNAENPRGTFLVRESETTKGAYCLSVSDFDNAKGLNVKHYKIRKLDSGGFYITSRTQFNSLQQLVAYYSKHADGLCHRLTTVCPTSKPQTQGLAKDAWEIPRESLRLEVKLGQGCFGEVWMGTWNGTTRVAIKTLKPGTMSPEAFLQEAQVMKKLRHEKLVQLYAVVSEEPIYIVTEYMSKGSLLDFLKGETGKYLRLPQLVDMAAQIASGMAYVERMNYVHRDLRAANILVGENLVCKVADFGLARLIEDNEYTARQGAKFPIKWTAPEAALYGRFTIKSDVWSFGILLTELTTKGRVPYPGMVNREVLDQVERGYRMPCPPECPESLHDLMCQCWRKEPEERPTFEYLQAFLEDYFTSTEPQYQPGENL
Chain of Ras-related protein Rab-6A (P20340 whole entry): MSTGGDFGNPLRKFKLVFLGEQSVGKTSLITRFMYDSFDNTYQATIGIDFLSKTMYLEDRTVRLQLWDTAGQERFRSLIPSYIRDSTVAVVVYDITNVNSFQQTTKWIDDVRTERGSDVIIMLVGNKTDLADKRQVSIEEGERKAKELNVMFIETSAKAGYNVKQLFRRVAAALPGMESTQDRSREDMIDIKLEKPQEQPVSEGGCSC
Chain of Tyrosine-protein kinase Lyn (P07948 whole entry): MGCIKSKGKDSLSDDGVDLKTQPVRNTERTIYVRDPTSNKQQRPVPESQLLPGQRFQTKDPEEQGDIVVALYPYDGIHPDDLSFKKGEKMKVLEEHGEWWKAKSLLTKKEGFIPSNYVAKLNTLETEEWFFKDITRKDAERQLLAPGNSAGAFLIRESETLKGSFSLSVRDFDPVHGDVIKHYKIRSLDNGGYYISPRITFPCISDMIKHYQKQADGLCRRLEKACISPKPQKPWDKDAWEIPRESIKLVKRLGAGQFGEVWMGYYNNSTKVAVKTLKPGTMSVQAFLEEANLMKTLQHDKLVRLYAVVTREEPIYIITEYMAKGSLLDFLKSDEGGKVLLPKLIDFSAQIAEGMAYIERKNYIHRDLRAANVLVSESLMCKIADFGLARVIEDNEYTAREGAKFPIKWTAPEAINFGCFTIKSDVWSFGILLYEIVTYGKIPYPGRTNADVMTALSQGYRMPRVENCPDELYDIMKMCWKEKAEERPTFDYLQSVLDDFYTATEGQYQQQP

Row | Kd [2] | Kd [4] | Kd [6] | Kd [7] | Structure (SMILES) | Kd [1] | Kd [3] | Kd [5] | Kd [8]
1 | > 30 µM (inactive) | > 30 µM (inactive) | > 30 µM (inactive) | > 30 µM (inactive) | Cn1c(=O)n(-c2ccc(C(C)(C)C#N)cc2)c2c3cc(-c4cnc5ccccc5c4)ccc3ncc21 [DACTOLISIB] | > 30 µM (inactive) | > 30 µM (inactive) | > 30 µM (inactive) | 
2 | > 30 µM (inactive) | > 30 µM (inactive) |  | > 30 µM (inactive) | COc1cc2c(Oc3ccc4[nH]c(C)cc4c3F)ncnc2cc1OCCCN1CCCC1 [CEDIRANIB] |  |  |  | 
3 |  | > 30 µM (inactive) | > 30 µM (inactive) | > 30 µM (inactive) | O[C@H]1CC[C@H](Nc2ncc3nc(Nc4c(F)cc(F)cc4F)n([C@H]4CCOC4)c3n2)CC1 [TANZISERTIB] | > 30 µM (inactive) | > 30 µM (inactive) | > 30 µM (inactive) | > 30 µM (inactive)
4 | > 30 µM (inactive) | > 30 µM (inactive) |  |  | COc1cc2c(N3CCN(C(=O)Nc4ccc(OC(C)C)cc4)CC3)ncnc2cc1OCCCN1CCCCC1 [TANDUTINIB] |  |  |  | 
5 | > 30 µM (inactive) | > 30 µM (inactive) |  |  | CN(C)C/C=C/C(=O)Nc1cc2c(Nc3ccc(F)c(Cl)c3)ncnc2cc1O[C@H]1CCOC1 [AFATINIB] |  |  |  | 
6 |  | > 30 µM (inactive) | > 30 µM (inactive) | > 30 µM (inactive) | CCN1CCN(Cc2ccc(Nc3ncc(F)c(-c4cc(F)c5nc(C)n(C(C)C)c5c4)n3)nc2)CC1 [ABEMACICLIB] | > 30 µM (inactive) | > 30 µM (inactive) | > 30 µM (inactive) | > 30 µM (inactive)
7 |  | > 30 µM (inactive) | > 30 µM (inactive) | > 30 µM (inactive) | C=CC(=O)Nc1cccc(Nc2nc(Nc3ccc(N4CCN(C(C)=O)CC4)cc3OC)ncc2C(F)(F)F)c1 [ROCILETINIB] | > 30 µM (inactive) | > 30 µM (inactive) | > 30 µM (inactive) | > 30 µM (inactive)
8 | > 30 µM (inactive) | > 30 µM (inactive) |  |  | Cn1cnc2c(F)c(Nc3ccc(Br)cc3Cl)c(C(=O)NOCCO)cc21 [SELUMETINIB] |  |  |  | 
9 | > 30 µM (inactive) | > 30 µM (inactive) |  |  | C[C@@]1(C(=O)Nc2ccc(F)nc2)CCCN1c1nc(Nc2cc(C3CC3)n[nH]2)c2cccn2n1 [BMS-754807] |  |  |  | 
10 |  | > 30 µM (inactive) | > 30 µM (inactive) | > 30 µM (inactive) | CCOc1ccn(-c2ccc(F)cc2)c(=O)c1C(=O)Nc1ccc(Oc2ccnc(N)c2Cl)c(F)c1 [BMS-777607] | > 30 µM (inactive) | > 30 µM (inactive) |  | > 30 µM (inactive)
11 | > 30 µM (inactive) | > 30 µM (inactive) |  |  | CC1(C)CNc2cc(NC(=O)c3cccnc3NCc3ccncc3)ccc21 [MOTESANIB] |  |  |  | 
12 |  | 0.033 µM | 3.63 µM (active) | > 30 µM (inactive) | CCN(CCCOc1ccc2c(Nc3cc(CC(=O)Nc4cccc(F)c4)n[nH]3)ncnc2c1)CCOP(=O)(O)O [BARASERTIB] | > 30 µM (inactive) | > 30 µM (inactive) | > 30 µM (inactive) | 

Row | Structure (SMILES) | Kd [2] | Kd [4] | Kd [6] | Kd [7] | Kd [1] | Kd [3] | Kd [5] | Kd [8]
13 | CN(c1ncccc1CNc1nc(Nc2ccc3c(c2)CC(=O)N3)ncc1C(F)(F)F)S(C)(=O)=O [PF-00562271] | > 30 µM (inactive) | > 30 µM (inactive) |  |  | > 30 µM (inactive) | > 30 µM (inactive) | 5.93 µM (active) | 
14 | C[C@]1(O)C[C@@H](c2nc(-c3ccc4ccc(-c5ccccc5)nc4c3)c3c(N)nccn32)C1 [LINSITINIB] |  | > 30 µM (inactive) |  |  | > 30 µM (inactive) | > 30 µM (inactive) | > 30 µM (inactive) | 
15 | COc1cc(F)c(F)c(Nc2ccc(I)cc2F)c1NS(=O)(=O)C1(C[C@H](O)CO)CC1 [REFAMETINIB] |  | > 30 µM (inactive) | > 30 µM (inactive) | > 30 µM (inactive) | > 30 µM (inactive) | > 30 µM (inactive) | > 30 µM (inactive) | > 30 µM (inactive)
16 | CN1CCN(c2nc(C3=C(c4c[nH]c5ccccc45)C(=O)NC3=O)c3ccccc3n2)CC1 [SOTRASTAURIN] |  | > 30 µM (inactive) | > 30 µM (inactive) | > 30 µM (inactive) | > 30 µM (inactive) | > 30 µM (inactive) | > 30 µM (inactive) | > 30 µM (inactive)
17 | CC1(COc2ccc3c(c2)ncn3-c2ccc3cccc(N4CCC(N)CC4)c3n2)COC1 [CRENOLANIB] | 1.33 µM | > 30 µM (inactive) | > 30 µM (inactive) | > 30 µM (inactive) | > 30 µM (inactive) | > 30 µM (inactive) | 0.702 µM (active) | 
18 | C=CCn1c(=O)c2cnc(Nc3ccc(N4CCN(C)CC4)cc3)nc2n1-c1cccc(C(C)(C)O)n1 [ADAVOSERTIB] | > 30 µM (inactive) | > 30 µM (inactive) | > 30 µM (inactive) | > 30 µM (inactive) | > 30 µM (inactive) | > 30 µM (inactive) | > 30 µM (inactive) | 
19 | N#CCNC(=O)c1ccc(-c2ccnc(Nc3ccc(N4CCOCC4)cc3)n2)cc1 [MOMELOTINIB] | > 30 µM (inactive) | > 30 µM (inactive) |  | > 30 µM (inactive) | > 30 µM (inactive) | > 30 µM (inactive) | > 30 µM (inactive) | > 30 µM (inactive)
20 | O=S(=O)(c1cccc2cnccc12)N1CCCNCC1 [FASUDIL] | > 30 µM (inactive) | > 30 µM (inactive) | > 30 µM (inactive) |  | > 30 µM (inactive) | > 30 µM (inactive) | > 30 µM (inactive) | > 30 µM (inactive)
